Test results: EPA's ToxRefDB 2

Columns and labels:
[1] = tested on: mouse; settings: Subchronic oral toxicity in rodents, b6c3f1, Gavage/Intubation, dose end: 14 week, group: systemic
[2] = tested on: mouse; settings: Combined chronic toxicity/carcinogenicity, b6c3f1, Oral, Gavage/Intubation, dose end: 104 week, group: systemic
[3] = tested on: rabbit; settings: Prenatal developmental toxicity study, new zealand white, Oral, Gavage/Intubation, dose end: 29 GD
[4] = tested on: rat; settings: Subchronic oral toxicity in rodents, fischer, Gavage/Intubation, dose end: 14 week, group: systemic
[5] = tested on: rat; settings: Prenatal developmental toxicity study, sprague dawley, Oral, Gavage/Intubation, dose end: 19 GD
[6] = tested on: mouse; settings: Multigenerational reproductive toxicity study, cd1, Oral, Water, dose end: 2 generation
[7] = tested on: rat; settings: Combined chronic toxicity/carcinogenicity, fischer, Oral, Gavage/Intubation, dose end: 104 week, group: systemic
[8] = tested on: mouse; settings: Carcinogenicity; cd1; Oral; Gavage/Intubation; dose end: 78 week; group: systemic; systemic / in life observation / body weight / body weight + systemic / in life observation / body weight / body weight gain
[9] = tested on: rat; settings: Chronic toxicity, sprague dawley, Oral, Gavage/Intubation, dose end: 24 month, group: systemic
[10] = tested on: dog; settings: Chronic toxicity, beagle, Oral, Capsule, dose end: 52 week, group: systemic
[11] = tested on: rat; settings: Subchronic oral toxicity in rodents, fischer, Gavage/Intubation, dose end: 13 week, group: systemic
[12] = tested on: mouse; settings: Subchronic oral toxicity in rodents, b6c3f1, Gavage/Intubation, dose end: 13 week, group: systemic
[13] = systemic / pathology microscopic / pancreas / hyperplasia + systemic / pathology microscopic / pancreas / inflammation + systemic / …
[14] = systemic / in life observation / body weight / body weight
[15] = systemic / pathology microscopic / pancreas / hyperplasia
[16] = group: developmental, systemic / in life observation / body weight / fetal weight
[17] = group: maternal, reproductive / reproductive performance / aborted / aborted + systemic / in life observation / body weight / body weight + systemic / in …
[18] = systemic / in life observation / body weight / body weight + systemic / in life observation / body weight / body weight gain + systemic / …
[19] = group: developmental, developmental / developmental malformation / bone / unossified + systemic / in life observation / body weight / fetal weight
[20] = group: maternal, systemic / in life observation / body weight / body weight + systemic / in life observation / body weight / body weight gain + systemic / …
[21] = group: offspring, systemic / in life observation / body weight / offspring (pup) weight + systemic / in life observation / food consumption / food consumption…
[22] = group: parental, systemic / in life observation / body weight / body weight + systemic / organ weight / ovary / relative to body weight + systemic / organ …
[23] = group: parental, systemic / in life observation / water consumption / water consumption
[24] = group: reproductive, reproductive / offspring survival early / litter size / litter size + reproductive / reproductive performance / estrous cycle / length + …
[25] = systemic / in life observation / body weight / body weight + systemic / pathology microscopic / pancreas / atrophy
[26] = systemic / pathology microscopic / liver / hyperplasia
[27] = systemic / pathology microscopic / liver / hyperplasia + systemic / pathology microscopic / bone marrow / [other]
[28] = systemic / clinical chemistry / albumin / albumin + systemic / clinical chemistry / albumin-globulin ratio / albumin-globulin ratio + …
[29] = systemic / hematology / leukocyte (wbc) count differential / leukocyte (wbc) + systemic / pathology microscopic / bone marrow / …
[30] = systemic / clinical chemistry / alkaline phosphatase (alp/alk) / alkaline phosphatase (alp/alk) + systemic / clinical chemistry / urea …
[31] = systemic / in life observation / body weight / body weight + systemic / in life observation / body weight / body weight gain + systemic / in…
[32] = systemic / organ weight / liver / absolute + systemic / organ weight / liver / relative to body weight

With `NC=O` [Formamide] the LEL ([1]; systemic / in life observation / body weight / body weight gain + systemic / hematology / platelet / platelet) was 40 mg/kg/day, the LOAEL ([1]; systemic / pathology microscopic / pancreas / hyperplasia + systemic / pathology microscopic / pancreas / inflammation + systemic / in life …) was 80 mg/kg/day and the NEL [1, 13] was 20 mg/kg/day. For the same molecule, the NOAEL [1, 13] was 40 mg/kg/day, the LOAEL [2, 14] was 80 mg/kg/day and the NOAEL ([2]; systemic / in life observation / body weight / body weight + systemic / pathology microscopic / liver / adenoma/carcinoma combined + …) was 40 mg/kg/day. It also gave an LEL [2, 15] of 20 mg/kg/day, an NEL [2, 15] of under 20 mg/kg/day and an LEL [3, 16] of 140 mg/kg/day. It also gave an LOAEL [3, 16] of over 140 mg/kg/day, an NEL [3, 16] of 70 mg/kg/day and an NOAEL [3, 16] of at least 140 mg/kg/day. For the same molecule, the LEL [3, 17] was 140 mg/kg/day, the LOAEL [3, 17] was over 140 mg/kg/day and the NEL [3, 17] was 70 mg/kg/day. It also gave an NOAEL [3, 17] of at least 140 mg/kg/day, an LEL ([4]; systemic / in life observation / body weight / body weight + systemic / hematology / [other] / [other] + systemic / hematology / erythrocyte…) of 40 mg/kg/day and an LOAEL ([4]; systemic / in life observation / body weight / body weight + systemic / in life observation / body weight / body weight gain) of 80 mg/kg/day. It also gave an NEL [4, 18] of 20 mg/kg/day, an NOAEL [4, 18] of 40 mg/kg/day and an LEL [5, 19] of 100 mg/kg/day. For the same molecule, the LOAEL [5, 19] was over 200 mg/kg/day, the NEL [5, 19] was 50 mg/kg/day and the NOAEL [5, 19] was at least 200 mg/kg/day. The LEL [5, 20] was 200 mg/kg/day, the LOAEL [5, 20] was over 200 mg/kg/day and the NEL [5, 20] was 100 mg/kg/day. It also gave an NOAEL [5, 20] of at least 200 mg/kg/day, an LOAEL [6, 21] of over 190 mg/kg/day and an NEL [6, 21] of 26 mg/kg/day. For the same molecule, the NOAEL [6, 21] was at least 190 mg/kg/day, the LEL ([6]; group: offspring, systemic / in life observation / food consumption / food consumption) was 87 mg/kg/day and the LOAEL [6, 22] was over 190 mg/kg/day. The NOAEL [6, 22] was at least 190 mg/kg/day, the LEL [6, 23] was 24 mg/kg/day and the NEL [6, 23] was under 24 mg/kg/day. For the same molecule, the LEL [6, 24] was 190 mg/kg/day, the LOAEL [6, 24] was over 190 mg/kg/day and the NEL [6, 24] was 87 mg/kg/day. It also gave an NOAEL [6, 24] of at least 190 mg/kg/day, an LEL [7, 14] of 40 mg/kg/day and an LOAEL [7, 14] of 80 mg/kg/day. For the same molecule, the NEL [7, 25] was 20 mg/kg/day and the NOAEL [7, 25] was 40 mg/kg/day.

For `N#CSCSC#N` [Methylene bis(thiocyanate)], the LEL [8] was 3 mg/kg/day, the LOAEL [8] was 3 mg/kg/day and the NEL [8] was 1.2 mg/kg/day. It also gave an NOAEL [8] of 1.2 mg/kg/day, an LOAEL [9, 26] of 0.4 mg/kg/day and an NOAEL [9, 26] of under 0.4 mg/kg/day. For the same molecule, the LEL [9, 27] was 0.4 mg/kg/day, the NEL [9, 27] was under 0.4 mg/kg/day and the LOAEL [10, 28] was 2 mg/kg/day. The NOAEL [10, 28] was 0.5 mg/kg/day, the LEL [10, 29] was 0.5 mg/kg/day and the NEL [10, 29] was under 0.5 mg/kg/day. For the same molecule, the LEL [11, 30] was 1 mg/kg/day, the NEL [11, 30] was under 1 mg/kg/day and the LOAEL ([11]; systemic / in life observation / mortality / mortality) was 2 mg/kg/day. For the same molecule, the NOAEL ([11]; systemic / in life observation / mortality / mortality + systemic / clinical chemistry / alanine aminotransferase (alt/sgpt) / alanine …) was 1 mg/kg/day, the LOAEL [12, 31] was over 16 mg/kg/day and the NOAEL [12, 31] was at least 16 mg/kg/day. The LEL [12, 32] was 1 mg/kg/day and the NEL [12, 32] was under 1 mg/kg/day.
